Data set [1] has as its system T cell. Briefly: Inhibition of anti-human CD3/CD28/mAbs-stimulated human T-cell proliferation at 30 uM after 72 hrs by CFSE staining based flow cytometric analysis. Type of data set: functional, tissue-based.
Data set [2] in a line: (§1) Inhibition of anti-human CD3/CD28/mAbs-stimulated human T-cell proliferation after 72 hrs by CFSE staining based flow cytometric analysis. The class given is functional, tissue-based. A general note: In flow cytometry, cells or beads pass a laser one at a time.
The test system of data set [3] is T cell. The data set is described as §1. The class given is functional, tissue-based.
A short description of data set [4]: Cytotoxicity against human T-cell assessed reduction in cell viability at 30 uM after 72 hrs. The class given is tissue-based.
Data set [5] is described as follows: Cytotoxicity against human T-cell assessed reduction in cell viability at 10 uM after 72 hrs. Type of data set: tissue-based.

We go through 14 compounds from ChEMBL document CHEMBL4699533, “Compounds from Toddalia asiatica: Immunosuppressant Activity and Absolute Configurations” (J Nat Prod, 2020).

Calls of active or inactive are those of the source. The rule behind the calls is not given here.

Regarding `COc1cc2oc(=O)ccc2c(OC)c1C[C@H](O)C(C)(C)O[C@@H]1O[C@H](CO)[C@@H](O)[C@H](O)[C@H]1O`, in the data set with T cell [1], the inhibition entry is “Active”.

Consider `COc1cc2oc(=O)ccc2c(OC)c1C(=O)O`, for which the inhibition entry in the data set with T cell [1] is “Active”. Take `COc1cc(/C=C/C(=O)OC[C@H]2O[C@@H](OC[C@@H](Cc3cc(OC)c(O)c(OC)c3)[C@@H](CO)Cc3cc(OC)c(O)c(OC)c3)[C@H](O)[C@@H](O)[C@@H]2O)cc(OC)c1O`: the inhibition entry in the data set with T cell [1] is “Active”. As usually defined, the IC50 is the point on the concentration scale where inhibition reaches its midpoint. A higher IC50 goes with lower potency. In data set [2], `COc1cc2c(cc1OC)-c1ccc3cc4c(cc3c1N(C)C2)OCO4` returned an IC50 of 6.7 µM. In the data set on T cell [3], the inhibition result was “Dose-dependent effect”. Besides, in data set [4], the Activity entry is “Toxic”. With `COc1cc2oc(=O)ccc2c(OC)c1C[C@@H](O)C(C)(C)O[C@@H]1O[C@H](CO)[C@@H](O)[C@H](O)[C@H]1O`, the inhibition entry with T cell [1] was “Active”. The same measure, in the same setting: as for `O=C(/C=C/c1ccc(O)cc1)NCCc1ccc(O)cc1`, the entry is “Active”; as for `COc1ccc([C@@H]2CC(=O)c3c(O)cc(O[C@@H]4O[C@H](CO[C@@H]5O[C@@H](C)[C@H](O)[C@@H](O)[C@H]5O)[C@@H](O)[C@H](O)[C@H]4O)cc3O2)cc1O`, “Active”; as for `COc1ccc2c(c1OC)CN(C)CCc1cc3c(cc1C(=O)C2)OCO3`, “Active”.

As to `COc1cc2oc(=O)ccc2c(OC)c1CC(O[C@@H]1O[C@H](CO)[C@@H](O)[C@H](O)[C@H]1O)C(C)(C)O` (some centres undefined), the inhibition entry in the data set with T cell [1] is “Active”. Still for that read-out and setting: as for `COc1cc(/C=C/C(=O)OC[C@H]2O[C@@H](OC[C@H]3[C@H](CO)Cc4cc(OC)c(O)c(OC)c4[C@@H]3c3cc(OC)c(O)c(OC)c3)[C@H](O)[C@@H](O)[C@@H]2O)cc(OC)c1O`, the entry is “Active”; as for `COc1cc2oc(=O)ccc2c(OC)c1CC(O)C(C)(C)O` (centres undefined), “Active”. Regarding `COc1cc(O)c(CCC(=O)O)c(OC)c1CC(O)C(C)(C)O` (centres undefined), the inhibition result with T cell [1] was “Active”. With `COc1cc2c[n+](C)c3c4cc5c(cc4ccc3c2cc1OC)OCO5.[Cl-]` [NITIDINE CHLORIDE], the Activity result in data set [5] and in data set [4] was “Toxic” throughout. For the same compound, the half-maximal inhibitory concentration (IC50) in data set [2] stood at 0.4 µM. Also, the inhibition entry with T cell [3] was “Dose-dependent effect”.

As to `COc1cc(C(=O)O)cc(OC)c1O`, the inhibition entry in the data set with T cell [1] was “Active”.
